Results reported in patent publication US5519155A, “Platinum complexes” (Johnson Matthey Public Limited Company, priority 1994, dated 1996).

Key:
[1] = system: 41M^R; experiment: In vitro cytotoxicity (SRB assay), human ovarian carcinoma line 41M^R; format: cell-based; conditions: 41M^R cells, exposure 48 to 96 hours
Protocol: (§1) Monolayer cells were trypsinized and seeded in 96-well microtiter plates at a density of 1×10^4 cells/well in 200 μl of growth medium. Cells were incubated overnight and test compounds were added to triplicate wells at various concentrations for a total of 48 to 96 hours. For toxicity analysis after drug exposure, the cells were fixed with trichloroacetic acid and stained for cellular protein content by incubation for 30 minutes with 0.4% (wt/vol) sulphorhodamine B (SRB) dissolved in 1% acetic acid. The unbound dye was removed by 1% acetic acid washes, and the bound dye was extracted with 10 mM Tris buffer. The amount of dye in solution was quantified by absorbance at 564 nm.

[2] = system: 41M; experiment: In vitro cytotoxicity (SRB assay), human ovarian carcinoma line 41M; format: cell-based; conditions: 41M cells, exposure 48 to 96 hours
Protocol: as §1

[3] = system: HX-62; experiment: In vitro cytotoxicity (SRB assay), human ovarian carcinoma line HX-62; format: cell-based; conditions: HX-62 cells, exposure 48 to 96 hours
Protocol: as §1

[4] = system: Adj/PC6 tumours; experiment: In vivo test in mice having Adj/PC6 tumours (LD50, ED90, TI); conditions: for ED90 / LD50 / TI (ratio of LD50 to ED90): mice, Adj/PC6 tumours
Protocol: The compounds of the invention were then tested in vivo in mice having Adj/PC6 tumours. The Adj/PC6 testing was carried out as described by P M Goddard et al presented in Sixth NCI-EORTC Symposium on New Drugs in Cancer Therapy 1989, which is a development of the basic method described by T A Connors et al, Chem Biol Interact 5,415 (1972). The animals were sacrificed when moribund. The compounds were administered parenterally (ip) or orally (po), or in the case of the Example 2 compound, iv at doses of 2.5, 5, 10 and 20 mg/kg (4 animals per dose group).
In the testing, LD50 and ED90 values in mg/kg body weight were determined in the conventional manner. The therapeutic index (TI) was calculated as the ratio of LD50 to ED90, and the results are shown below.

[5] = system: SKOV-3; experiment: In vitro cytotoxicity (SRB assay), human ovarian carcinoma line SKOV-3; format: cell-based; conditions: SKOV-3 cells, exposure 48 to 96 hours
Protocol: as §1

[6] = system: CH1; experiment: In vitro cytotoxicity (SRB assay), human ovarian carcinoma line CH1; format: cell-based; conditions: CH1 cells, exposure 48 to 96 hours
Protocol: as §1

[7] = system: A2780; experiment: In vitro cytotoxicity (SRB assay), human ovarian carcinoma line A2780; format: cell-based; conditions: A2780 cells, exposure 48 to 96 hours
Protocol: as §1

[8] = system: A2780^R; experiment: In vitro cytotoxicity (SRB assay), human ovarian carcinoma line A2780^R; format: cell-based; conditions: A2780^R cells, exposure 48 to 96 hours
Protocol: as §1

[9] = system: CH^R; experiment: In vitro cytotoxicity (SRB assay), human ovarian carcinoma line CH^R; format: cell-based; conditions: CH^R cells, exposure 48 to 96 hours
Protocol: as §1

[10] = i.v., doses 2.5, 5, 10 and 20 mg/kg

Compound | IC50 [1] [nM] | IC50 [2] [nM] | IC50 [3] [nM] | ED90 ([4]; i.p.) [mg/kg] | LD50 ([4]; i.p.) [mg/kg] | TI (ratio of LD50 to ED90) ([4]; i.p.) | IC50 [5] [nM] | IC50 [6] [nM] | IC50 [7] [nM] | ED90 [4, 10] [mg/kg] | LD50 [4, 10] [mg/kg] | TI (ratio of LD50 to ED90) [4, 10] | therapeutic index, oral route compared to parenteral administration ([4]; oral vs parenteral, in words) | ED90 ([4]; p.o.) [mg/kg] | LD50 ([4]; p.o.) [mg/kg] | TI (ratio of LD50 to ED90) ([4]; p.o.) | IC50 [8] [nM] | IC50 [9] [nM]
CCCC(=O)[O][Pt]([Cl])([O]C)[O]C(=O)CCC.N.NC1CCCCC1 [Example 1, c,t,c-[PtCl(OMe)(O2 CC3 H7)2 NH3 (c-C6 H11 NH2)]] | 13 | 10 | 220 | 2.6 | 17.5 | 6.7 | 30 | 2 | – | – | – | – | – | – | – | – | – | –
CC(=O)[O][Pt]([OH])([OH])[O]C(C)=O.N.NC1CCCCC1 [Example 2, c,t,c-[Pt(OH)2 (OAc)2 NH3 (c-C6 H11 NH2)]] | 4300 | 6500 | 37000 | 4.2 | 17.5 | 4.2 | 21000 | 740 | 4200 | < 2.5 | 14 | > 5.6 | greater therapeutic index | 42 | 670 | 16 | 3700 | 1350
CC(C)N.CC(C)N.CCCCCC(=O)[O][Pt]([OH])([Cl])[O]C(=O)CCCCC [Example 3, c,t,c-[PtCl(OH)(O2 CC5 H11)2 (i-C3 H7 NH2)2]] | < 2.5 | < 2.5 | 50 | – | – | – | 4.6 | < 2.5 | < 2.5 | – | – | – | – | – | – | – | 2.9 | < 2.5
CC(=O)[O][Pt]([OH])([Cl])[O]C(C)=O.CC(C)N.CC(C)N [Example 4, c,t,c-[PtCl(OH)(OAc)2 (i-C3 H7 NH2)2]] | 590 | 890 | 2100 | – | – | – | 1600 | 86 | 650 | – | – | – | – | – | – | – | 1900 | 210
CC(=O)[O][Pt]([OH])([Cl])[O]C(C)=O.N.NC1CCCCC1 [Example 6, c,t,c-[PtCl(OH)(OAc)2 NH3 (c-C6 H11 NH2)]] | 440 | 240 | 3100 | – | – | – | 1150 | 22 | 310 | – | – | – | – | – | – | – | 930 | 82
CC(C)N.CC(C)N.C[O][Pt]([OH])([O]C(C)=O)[O]C(C)=O [Example 7, c,t,c-[Pt(OH)(OMe)(OAc)2 (i--C3 H7 NH2)2]] | 2500 | 3100 | 12500 | – | – | – | 6100 | 260 | – | – | – | – | – | – | – | – | – | –
